Test results as given in US7247627B2, “Salts and polymorphs of a pyrrole-substituted indolinone compound” (Pharmacia & Upjohn Company, priority 2003, dated 2007).

Assay: Chemical stability in temperature and humidity-controlled chamber (Example 2)
Type: physicochemical
Design: key to Appearance: U: unchanged
Experimental: Chemical stability was assessed for two different samples of 5-[(Z)-(5-fluoro-2-oxo-1,2-dihydro-3H-indol-3-ylidene)methyl]-N-[(2S)-2-hydroxy-3-morpholin-4-ylpropyl]-2,4-dimethyl-1H-pyrrole-3-carboxamide maleate salt, polymorph Form 1. Samples were maintained in a temperature and humidity-controlled chamber at 25° C. and 60% relative humidity (Tables 7 and 8) or at 40° C. and 75% relative humidity (Tables 9 and 10). At various time intervals, material was removed and tested for maleate counterion assay, impurities, water content and enantiomeric purity.
The maleate counterion assay was determined by ion exchange chromatography (IEC).
A suitable amount of the maleate salt is dissolved in water (Milli Q grade) and analyzed by IEC, and compared to calibration samples. Under these conditions, the peak due to maleic acid has a retention time of about 11 minutes. The amount of maleic acid in the sample is calculated as: % Assay=(Cs/W)×100 where Cs is the concentration of maleic acid found in the sample, and W is the theoretical sample concentration in the aqueous solution.
The amounts of impurities and degradation products were determined by HPLC, using a Perkin Elmer LC 200 system with a diode array detector. The analytical column was a Waters Xterra RP18, 5 μm, 250×4.6 mm, and the guard column was a Waters Xterra RP18, 5 μm, 20×3.9 mm. Mobile phase A was a mixture of 90% 0.05 M ammonium acetate buffer at pH 5.5 and 10% acetonitrile. Mobile phase B was a mixture of 10% 0.05 M ammonium acetate buffer at pH 5.5 and 90% acetonitrile.
Flow rate was 1 mL/min, injection volume 30 μL, room temperature, 435 nm detection. Under these conditions, the peak due to the maleate salt has a retention time of about 24 minutes. Impurities are characterized by their relative retention time (RRT). The impurity at RRT=0.26 is the E isomer. The other impurities were not characterized.
Enantiomeric purity was determined by HPLC, using a Chiralpak AD analytical column, 10 μm, 250×4.6 mm (Daicel Chemical Industries, Ltd.) using an oven temperature of 30° C., a mobile phase of 2-propanol/heptane/diethylamine (50/50/0.1), an isocratic elution mode, a flow rate of 0.5 mL/min, injection volume of 50 μL, detector wavelength of 265 nm, dilution solvent 2-propanol/heptane (50/50) and a sample concentration of 0.3 mg/mL. Under these conditions, the S isomer has a retention time of about 15.5 minutes, and the R isomer has a retention time of about 22 minutes.
Water content was determined according to USP 25, <921>, Method Ic.

[1] = 25° C. and 60% Relative Humidity, 1 mo.
[2] = 25° C. and 60% Relative Humidity, 3 mo.
[3] = 25° C. and 60% Relative Humidity, 6 mo.
[4] = 25° C. and 60% Relative Humidity, Initial
[5] = 40° C. and 75% Relative Humidity, 1 mo.
[6] = 40° C. and 75% Relative Humidity, 3 mo.
[7] = 40° C. and 75% Relative Humidity, 6 mo.
[8] = 40° C. and 75% Relative Humidity, Initial

SMILES: Cc1[nH]c(/C=C2\C(=O)Nc3ccc(F)cc32)c(C)c1C(=O)NC[C@H](O)CN1CCOCC1 [Sample B, 5-[(Z)-(5-fluoro-2-oxo-1,2-dihydro-3H-indol-3-ylidene)methyl]-N-[(2S)-2-hydroxy-3-morpholin-4-ylpropyl]-2,4-dimethyl-1H-pyrrole-3-carboxamide]
- Appearance [1]: U^a
- Assay (% free base equivalent) [1]: 98.2 % free base equivalent
- Impurities (%) RRT 0.26 [1]: 0.06%
- Impurities (%) RRT 0.51 [1]: 0.62%
- Impurities (%) RRT 0.71 [1]: 0.09%
- Impurities (%) RRT 1.53 [1]: 0.09%
- Impurities (%) RRT 1.74 [1]: 0.06%
- Impurities (%) RRT 1.84 [1]: 0.08%
- Total Impurities (%) [1]: 1.00%
- Water Content (%) [1]: 0.50%
- Appearance [2]: U^a
- Assay (% free base equivalent) [2]: 98.2 % free base equivalent
- Impurities (%) RRT 0.26 [2]: 0.18%
- Impurities (%) RRT 0.51 [2]: 0.61%
- Impurities (%) RRT 0.71 [2]: 0.09%
- Impurities (%) RRT 1.53 [2]: 0.08%
- Impurities (%) RRT 1.74 [2]: 0.05%
- Impurities (%) RRT 1.84 [2]: 0.09%
- Total Impurities (%) [2]: 1.10%
- Water Content (%) [2]: 0.54%
- Appearance [3]: U^a
- Assay (% free base equivalent) [3]: 97.7 % free base equivalent
- Impurities (%) RRT 0.26 [3]: 0.05%
- Impurities (%) RRT 0.51 [3]: 0.56%
- Impurities (%) RRT 0.71 [3]: 0.05%
- Impurities (%) RRT 1.53 [3]: 0.08%
- Impurities (%) RRT 1.74 [3]: 0.06%
- Impurities (%) RRT 1.84 [3]: 0.09%
- Total Impurities (%) [3]: 0.90%
- Water Content (%) [3]: 0.47%
- Assay (% free base equivalent) [4]: 97.8 % free base equivalent
- Enantiomeric Purity (%) [4]: >99.90%
- Impurities (%) RRT 0.26 [4]: 0.21%
- Impurities (%) RRT 0.51 [4]: 0.68%
- Impurities (%) RRT 0.71 [4]: 0.07%
- Impurities (%) RRT 1.53 [4]: 0.11%
- Impurities (%) RRT 1.74 [4]: 0.07%
- Impurities (%) RRT 1.84 [4]: 0.10%
- Total Impurities (%) [4]: 1.24%
- Water Content (%) [4]: 0.45%
- Appearance [5]: U^a
- Assay (% free base equivalent) [5]: 98.2 % free base equivalent
- Impurities (%) RRT 0.26 [5]: 0.13%
- Impurities (%) RRT 0.51 [5]: 0.61%
- Impurities (%) RRT 0.71 [5]: 0.08%
- Impurities (%) RRT 1.53 [5]: 0.10%
- Impurities (%) RRT 1.74 [5]: 0.06%
- Impurities (%) RRT 1.84 [5]: 0.08%
- Total Impurities (%) [5]: 1.06%
- Water Content (%) [5]: 0.49%
- Appearance [6]: U^a
- Assay (% free base equivalent) [6]: 97.2 % free base equivalent
- Impurities (%) RRT 0.26 [6]: 0.18%
- Impurities (%) RRT 0.51 [6]: 0.58%
- Impurities (%) RRT 0.71 [6]: 0.08%
- Impurities (%) RRT 1.53 [6]: 0.09%
- Impurities (%) RRT 1.74 [6]: 0.05%
- Impurities (%) RRT 1.84 [6]: 0.09%
- Total Impurities (%) [6]: 1.06%
- Water Content (%) [6]: 0.49%
- Appearance [7]: U^a
- Assay (% free base equivalent) [7]: 97.5 % free base equivalent
- Enantiomeric Purity (%) [7]: >99.9%
- Impurities (%) RRT 0.26 [7]: 0.05%
- Impurities (%) RRT 0.51 [7]: 0.54%
- Impurities (%) RRT 1.53 [7]: 0.10%
- Impurities (%) RRT 1.74 [7]: 0.05%
- Impurities (%) RRT 1.84 [7]: 0.09%
- Total Impurities (%) [7]: 0.83%
- Water Content (%) [7]: 0.47%
- Assay (% free base equivalent) [8]: 97.8 % free base equivalent
- Enantiomeric Purity (%) [8]: >99.95%
- Impurities (%) RRT 0.26 [8]: 0.21%
- Impurities (%) RRT 0.51 [8]: 0.68%
- Impurities (%) RRT 0.71 [8]: 0.07%
- Impurities (%) RRT 1.53 [8]: 0.11%
- Impurities (%) RRT 1.74 [8]: 0.07%
- Impurities (%) RRT 1.84 [8]: 0.10%
- Total Impurities (%) [8]: 1.24%
- Water Content (%) [8]: 0.45%
